Measurements reported in patent publication US9194802B2, “Luminescent probes having a phenanthridinyl antenna, and methods of use” (REGENTS OF THE UNIVERSITY OF MINNESOTA, priority 2012, dated 2015).

How the values were obtained:
[1] = Dickins et al., J. Am. Chem. Soc., 2002; cited from earlier work
ATP = experiment: Stern-Volmer time-delayed luminescence quenching titration with ATP; type: binding; conditions: for Stern-Volmer constant KSV with ATP: excitation 346 nm, time-delay 0.1 ms, probe 10 μM, water, Tris 10 mM, pH 7.0, 20° C., n=3, emission integrated 450-650 nm (Tb) or 550-750 (Eu); for log KSV for ATP: from Stern-Volmer constants of Table 2
Protocol: (§1) Unless otherwise noted, starting materials were obtained from commercial suppliers and used without further purification. Water was deionized and further purified by a Millipore cartridge system (resistivity 1.8×10^7Ω). All organic extracts were dried over anhydrous MgSO4 and solvents were removed with a rotary evaporator. Flash chromatography was performed on Salicycle Silica Gel (230-400 mesh) or Brockmann activated aluminum oxide (neutral, 60 mesh). ^1H NMR spectra were recorded on a Varian 300 or Varian 500 at 300 MHz or 500 MHz, respectively, and ^13C NMR spectra on a Varian 300 at 75 MHz; the residual solvent peak was used as an internal reference. Data for ^1H NMR are recorded as follows: chemical shift (δ, ppm), multiplicity (s, singlet; br s, broad singlet; d, doublet, t, triplet; q, quartet; m, multiplet), integration, coupling constant (Hz). Data for ^13C NMR are reported in terms of chemical shift (δ, ppm). Mass spectra (LR=lo2w resolution; HR=high resolution; MS-ESI=electrospray mass spectrometry) were recorded on a Bruker BioTOF II. Purity of lanthanide complexes was evaluated by high performance liquid chromatography (HPLC) using a Varian Microsorb 300-5 C18 250 mm×4.6 mm at a flow rate was 1.0 mL/min (see supporting information for spectra and solvent gradients). UV-Vis data was obtained on a Cary Bio 100 UV-Vis Spectrophotometer. Data was collected over the range of 200-800 nm. Fluorescence data was acquired on a Varian Cary Eclipse Fluorescence Spectrophotometer using a quartz cell with a path length of 10 mm, excitation slit width of 5 nm and emission slit width of 5 nm at T=20° C. Solutions were not degased prior to measurement of their luminescence spectra and lifetimes.

ADP = experiment: Stern-Volmer time-delayed luminescence quenching titration with ADP; type: binding; conditions: for Stern-Volmer constant KSV with ADP: excitation 346 nm, time-delay 0.1 ms, probe 10 μM, water, Tris 10 mM, pH 7.0, 20° C., n=3, emission integrated 450-650 nm (Tb) or 550-750 (Eu)
Protocol: as §1

AMP = experiment: Stern-Volmer time-delayed luminescence quenching titration with AMP; type: binding; conditions: for Stern-Volmer constant KSV with AMP: excitation 346 nm, time-delay 0.1 ms, probe 10 μM, water, Tris 10 mM, pH 7.0, 20° C., n=3, emission integrated 450-650 nm (Tb) or 550-750 (Eu)
Protocol: as §1

GTP = experiment: Stern-Volmer time-delayed luminescence quenching titration with GTP; type: binding; conditions: for Stern-Volmer constant KSV with GTP: excitation 346 nm, time-delay 0.1 ms, probe 10 μM, water, Tris 10 mM, pH 7.0, 20° C., n=3, emission integrated 450-650 nm (Tb) or 550-750 (Eu)
Protocol: as §1

GDP = experiment: Stern-Volmer time-delayed luminescence quenching titration with GDP; type: binding; conditions: excitation 346 nm, time-delay 0.1 ms, probe 10 μM, water, Tris 10 mM, pH 7.0, 20° C., n=3, emission integrated 450-650 nm (Tb) or 550-750 (Eu)
Protocol: as §1

GMP = experiment: Stern-Volmer time-delayed luminescence quenching titration with GMP; type: binding; conditions: excitation 346 nm, time-delay 0.1 ms, probe 10 μM, water, Tris 10 mM, pH 7.0, 20° C., n=3, emission integrated 450-650 nm (Tb) or 550-750 (Eu)
Protocol: as §1

CTP = experiment: Stern-Volmer time-delayed luminescence quenching titration with CTP; type: binding; conditions: excitation 346 nm, time-delay 0.1 ms, probe 10 μM, water, Tris 10 mM, pH 7.0, 20° C., n=3, emission integrated 450-650 nm (Tb) or 550-750 (Eu)
Protocol: as §1

CDP = experiment: Stern-Volmer time-delayed luminescence quenching titration with CDP; type: binding; conditions: excitation 346 nm, time-delay 0.1 ms, probe 10 μM, water, Tris 10 mM, pH 7.0, 20° C., n=3, emission integrated 450-650 nm (Tb) or 550-750 (Eu)
Protocol: as §1

CMP = experiment: Stern-Volmer time-delayed luminescence quenching titration with CMP; type: binding; conditions: excitation 346 nm, time-delay 0.1 ms, probe 10 μM, water, Tris 10 mM, pH 7.0, 20° C., n=3, emission integrated 450-650 nm (Tb) or 550-750 (Eu)
Protocol: as §1

UTP = experiment: Stern-Volmer time-delayed luminescence quenching titration with UTP; type: binding; conditions: excitation 346 nm, time-delay 0.1 ms, probe 10 μM, water, Tris 10 mM, pH 7.0, 20° C., n=3, emission integrated 450-650 nm (Tb) or 550-750 (Eu)
Protocol: as §1

UDP = experiment: Stern-Volmer time-delayed luminescence quenching titration with UDP; type: binding; conditions: excitation 346 nm, time-delay 0.1 ms, probe 10 μM, water, Tris 10 mM, pH 7.0, 20° C., n=3, emission integrated 450-650 nm (Tb) or 550-750 (Eu)
Protocol: as §1

UMP = experiment: Stern-Volmer time-delayed luminescence quenching titration with UMP; type: binding; conditions: excitation 346 nm, time-delay 0.1 ms, probe 10 μM, water, Tris 10 mM, pH 7.0, 20° C., n=3, emission integrated 450-650 nm (Tb) or 550-750 (Eu)
Protocol: as §1

[2] = tested on: PKAc, the catalytic domain of protein kinase A; experiment: Continuous monitoring of ATP to ADP conversion during phosphorylation of KRRWSAP-NH2 by PKAc; type: biochemical; conditions: both probes 10 μM, PKAc 1 μM, peptide 1.5 mM, ATP 1 mM, 37° C., 0-6 hours; Tb at 490 and 545 nm, Eu at 688 and 700 nm
Protocol: FIG. 29 illustrates an exemplary embodiment of continuous monitoring of ATP to ADP conversion during enzymatic phosphorylation of the peptide KRRWSAP-NH2 by its kinase PKAc. Experimental conditions: [Tb-DOTAm-Phen]^3+=10 μM, Eu-DOTA-Phen=10 μM, [PKAc]=1 μM, [amide-blocked KRRWSAP-NH2]=1.5 mM, [ATP]=1 mM, [Tris]=10 mM, [Brij-35]=0.05%, [MgCl2]=50 mM, [EGTA]=5 mM, [DTT]=2 mM, pH 7.0, T=37° C., excitation at 346 nm, time delay=0.1 ms. Reaction time: 0-6 hours.
The ability of the two lanthanide probes to monitor enzymatic reactions involving ATP or GTP directly and continuously was evaluated with PKAc, the catalytic domain of protein kinase A. PKAc is a serine-threonine protein kinase that is actively studied as a biological target in cancer therapy (Naviglio et al., Expert Opin. Ther. Targets, 2009, 13, 83-92). […] Phosphorylation of the substrate and conversion of ATP to ADP takes place only when all components are present in the buffer. […] [Tb-DOTAm-Phen]^3+ and Eu-DOTA-Phen are thus able to directly monitor kinases' activities by time-gated luminescence spectroscopy. […] It should be noted, however, that these probes are not intended for use in cells as the presence of more than two purine nucleotides would make the results hard to interpret.

Compound | Stern-Volmer constant KSV with ATP (ATP) | log KSV for ATP (ATP) | Stern-Volmer constant KSV with ADP (ADP) | Stern-Volmer constant KSV with AMP (AMP) | Stern-Volmer constant KSV with GTP (GTP) | Stern-Volmer constant KSV with GDP (GDP) | Stern-Volmer constant KSV with GMP (GMP) | Stern-Volmer constant KSV with CTP (CTP) | Stern-Volmer constant KSV with CDP (CDP) | Stern-Volmer constant KSV with CMP (CMP) | Stern-Volmer constant KSV with UTP (UTP) | Stern-Volmer constant KSV with UDP (UDP) | Stern-Volmer constant KSV with UMP (UMP) | time-gated luminescence as the PKAc reaction proceeds (ADP:ATP ratio increases) [2] | also measured
O=C([O-])CN1CCN(CC(=O)[O-])CCN(CC(=O)O)CCN(CC(=O)[O-])CC1.[Gd+3] [Gd-DOTA] | – | – | – | – | – | – | – | – | – | – | – | – | – | – | log Ka with biphosphate [1]: 2.2
Eu-DOTA-Phen | 0.065(1) | −1.2 | 0.058(1) | 0.053(1) | 0.099(1) | 0.164(3) | 0.118(2) | 0.006(1) | 0.008(1) | 0.008(1) | 0.001(2) | 0.002(2) | 0.007(2) | remains constant | –
Tb-PhenDOTAm | 1.28 ± 0.05 | 0.11 | 0.85 ± 0.02 | 0.397 ± 0.005 | 33.1 ± 0.1 | 9.84 ± 0.05 | 2.84 ± 0.01 | 0.103 ± 0.007 | 0.149 ± 0.009 | 0.139 ± 0.006 | 0.047 ± 0.002 | 0.065 ± 0.007 | 0.070 ± 0.004 | increases | time-gated luminescence quenched by ATP (ATP; 1 mM ATP): 59.7%; Stern-Volmer constant KSV with ATP (ATP; listed as [Tb-DOTAm-Phen]^3+): 1.28(5); phosphorescence quenched by ADP (ADP; 1 mM ADP): 47.4%; Stern-Volmer constant KSV with ADP (ADP; listed as [Tb-DOTAm-Phen]^3+): 0.85(2); phosphorescence quenched by AMP (AMP; 1 mM AMP): 31.0%; Stern-Volmer constant KSV with AMP (AMP; listed as [Tb-DOTAm-Phen]^3+): 0.397(5); increase of apparent binding affinity for GTP over that of the neutral complex (12) (GTP; +3 charged probe (1) versus neutral complex (12)): 300 fold; Stern-Volmer constant KSV with GTP (GTP; listed as [Tb-DOTAm-Phen]^3+): 33.1(1); Stern-Volmer constant KSV with GDP (GDP; listed as [Tb-DOTAm-Phen]^3+): 9.84(5); Stern-Volmer constant KSV with GMP (GMP; listed as [Tb-DOTAm-Phen]^3+): 2.84(1); Stern-Volmer constant KSV with CTP (CTP; listed as [Tb-DOTAm-Phen]^3+): 0.103(7); Stern-Volmer constant KSV with CDP (CDP; listed as [Tb-DOTAm-Phen]^3+): 0.149(9); Stern-Volmer constant KSV with CMP (CMP; listed as [Tb-DOTAm-Phen]^3+): 0.139(6); Stern-Volmer constant KSV with UTP (UTP; listed as [Tb-DOTAm-Phen]^3+): 0.047(2); Stern-Volmer constant KSV with UDP (UDP; listed as [Tb-DOTAm-Phen]^3+): 0.065(7); Stern-Volmer constant KSV with UMP (UMP; listed as [Tb-DOTAm-Phen]^3+): 0.070(4)
